Assay results reported in publication PMC8840664, “Design, Synthesis, Spectroscopic Characterisation and In Vitro Cytostatic Evaluation of Novel Bis(coumarin-1,2,3-triazolyl)benzenes and Hybrid Coumarin-1,2,3-triazolyl-aryl Derivatives” (Molecules, 2022).

Experiments:
[1] = system: HMEC-1 (dermal microvascular endothelial cell); test: cell proliferation, Coulter counter, HMEC-1 (non-tumour); type: cell-based; conditions: Homo sapiens, HMEC-1, 72 h; non-tumour cell line; 3 days, cells counted in a Coulter counter
Description: (§1) The experiments were carried out on several human cell lines, as follows: HCT116 (colon carcinoma), H 460 (lung carcinoma) and MCF-7 (breast carcinoma), HeLa (cervical carcinoma), human T-lymphocyte cells (CEM) and HMEC-1 (dermal microvascular endothelial cell) according to the previously published experimental procedure. Briefly, the cells were grown in DMEM medium with the addition of 10% foetal bovine serum (FBS), 2 mM L-glutamine, 100 U/mL penicillin and 100 µg/mL streptomycin, and cultured as monolayers at 37 °C in a humidified atmosphere with 5% CO2. HCT116, H 460 and MCF-7 cells were seeded at 2 × 10^3 cells/well in a standard 96-well microtiter plates and left to attach for 24 h. Next day, test compound was added in five serial 10-fold dilutions. The cell growth rate was evaluated after 72 h of incubation, using MTT assay. Obtained results were expressed as IC50 value which stands for the concentration of the compound necessary for 50% of growth inhibition. The IC50 values were calculated from concentration-response curve using linear regression analysis by fitting the test concentrations that give percentage of growth (PG) values above and below the reference value (i.e., 50%). However, if for a given cell line all of the tested concentrations produce PGs exceeding the respective reference level of effect (e.g., PG value of 50), then the highest tested concentration is assigned as the default value, which is preceded by a “>” sign. Each test was performed in quadruplicate in at least two individual experiments.
(§2) HeLa and HMEC-1 cells were seeded in 48-well plates at 10,000 cells/well. After 24 h, different concentrations of the compounds were added. After 3 days of incubation, the cells were trypsinized and counted in a Coulter counter. Suspension cells (human T-cell leukaemia Cem cells) were seeded in 96-well plates at 60,000 cells/well in the presence of different concentrations of compounds, allowed to proliferate for 96 h, and counted in a Coulter counter. The 50% inhibitory concentration (IC50) was defined as the compound concentration required reducing cell proliferation by 50%.

MCF-7 (breast carcinoma) = test: in vitro antiproliferative activity, MTT assay, MCF-7; type: cell-based, human; conditions: for IC50: Homo sapiens, MCF7, concentration that causes 50% growth inhibition, 72 h, MTT assay
Description: as §1

HCT116 (colon carcinoma) = test: in vitro antiproliferative activity, MTT assay, HCT116; type: cell-based; conditions: Homo sapiens, HCT-116, concentration that causes 50% growth inhibition, 72 h
Description: as §1

[2] = system: human T-lymphocyte cells (CEM); test: cell proliferation, Coulter counter, CEM; type: cell-based; conditions: 96 h, cells counted in a Coulter counter
Description: as §1, §2

H 460 (lung carcinoma) = test: in vitro antiproliferative activity, MTT assay, H 460; type: cell-based; conditions: Homo sapiens, NCI-H460, concentration that causes 50% growth inhibition, 72 h
Description: as §1

[3] = system: HeLa (cervical carcinoma); test: cell proliferation, Coulter counter, HeLa; type: cell-based; conditions: Homo sapiens, 72 h, 3 days, cells counted in a Coulter counter
Description: as §1, §2

Structure (SMILES) | IC50 (MCF-7 (breast carcinoma)) [µM] | melting point [°C] | IC50 (HCT116 (colon carcinoma)) [µM] | IC50 (H 460 (lung carcinoma)) [µM] | IC50 [1] [µM] | IC50 [2] [µM] | IC50 [3] [µM] | activity against MCF-7 cell line (in words) (MCF-7 (breast carcinoma))
Cc1cc(=O)oc2cc(-n3cc(-c4ccc(-c5cn(-c6ccc7c(C)cc(=O)oc7c6)nn5)cc4)nn3)ccc12 [Compound 2i, 7,7′-(4,4′-(1,4-Phenylene)bis(1H-1,2,3-triazole-4,1-diyl))bis(4-methyl-2H-chromen-2-one)] | 1 ± 0.1 | 255 to 261 | 7 ± 3 | ≥ 100 | > 100 | > 100 | ≥ 100 | –
COc1cc([C@@H]2c3cc4c(cc3[C@@H](O[C@@H]3O[C@@H]5CO[C@@H](C)O[C@H]5[C@H](O)[C@H]3O)[C@H]3COC(=O)[C@H]23)OCO4)cc(OC)c1O [etoposide, reference compound] | 1 ± 0.7 | – | 5 ± 2 | 0.1 ± 0.04 | – | – | – | –
COc1ccc(-c2cn(-c3ccc4c(C)cc(=O)oc4c3)nn2)cc1 [Compound 2f, 7-[4-(4-Methoxyphenyl)-1H-1,2,3-triazol-1-yl]-4-methyl-2H-chromen-2-one] | ≥ 100 | 266 to 270 | 22 ± 21 | ≥ 100 | – | – | – | devoid of activity
Cc1cc(=O)oc2cc(-n3cc(-c4ccccc4)nn3)ccc12 [Compound 2a, 4-Methyl-7-(4-phenyl-1H-1,2,3-triazol-1-yl)-2H-chromen-2-one] | 23 ± 9 | 267 to 270 | ≥ 100 | ≥ 100 | > 100 | > 100 | > 100 | –
Cc1cc(=O)oc2cc(-n3cc(-c4ccc(Br)cc4)nn3)ccc12 [Compound 2e, 7-[4-(4-Bromophenyl)-1H-1,2,3-triazol-1-yl]-4-methyl-2H-chromen-2-one] | 32 ± 4 | 280 to 285 | 27 ± 0.06 | 85 ± 13.5 | – | – | – | –
Cc1cc(=O)oc2cc(-n3cc(-c4ccc(N(C)C)cc4)nn3)ccc12 [Compound 2c, 7-[4-(4-(Dimethylamino)phenyl]-1H-1,2,3-triazol-1-yl)-4-methyl-2H-chromen-2-one] | 21 ± 0.03 | 275 to 279 | ≥ 100 | ≥ 100 | > 100 | 58 ± 7 | 88 ± 8 | –
Cc1cc(=O)oc2cc(-n3cc(CSc4nc5ccccc5s4)nn3)ccc12 [Compound 4a, 7-{{4-[(Benzo[d]thiazol-2-yl)thio]methyl}-1H-1,2,3-triazol-1-yl}-4-methyl-2H-chromen-2-one] | 3 ± 2 | 186 to 192 | 31 ± 6 | 21 ± 7 | 66 ± 4 | ≥ 100 | 79 ± 36 | –
Cc1cc(=O)oc2cc(-n3cc(-c4cccc(-c5cn(-c6ccc7c(C)cc(=O)oc7c6)nn5)c4)nn3)ccc12 [Compound 2h, 7,7′-(4,4′-(1,3-Phenylene)bis(1H-1,2,3-triazole-4,1-diyl))bis(4-methyl-2H-chromen-2-one)] | 0.3 ± 0.2 | – | 9 ± 3 | 29 ± 3 | > 100 | > 100 | > 100 | –

Continued, in another order:

IC50 (MCF-7 (breast carcinoma)) [µM] | melting point [°C] | IC50 (HCT116 (colon carcinoma)) [µM] | IC50 (H 460 (lung carcinoma)) [µM] | Structure (SMILES) | IC50 [1] [µM] | IC50 [2] [µM] | IC50 [3] [µM] | activity against MCF-7 cell line (in words) (MCF-7 (breast carcinoma))
≥ 100 | 269 to 272 | 36 ± 3 | ≥ 100 | Cc1ccc(-c2cn(-c3ccc4c(C)cc(=O)oc4c3)nn2)cc1 [Compound 2d, 4-Methyl-7-[4-(p-tolyl)-1H-1,2,3-triazol-1-yl]-2H-chromen-2-one] | – | – | – | devoid of activity
≥ 100 | 282 to 287 | 77 ± 7 | ≥ 100 | Cc1cc(=O)oc2cc(-n3cc(-c4ccc(C=O)cc4)nn3)ccc12 [Compound 2g, 4-[1-(4-Methyl-2-oxo-2H-chromen-7-yl]-1H-1,2,3-triazol-4-yl)benzaldehyde] | – | – | – | devoid of activity
14 ± 0.3 | – | 4 ± 1 | 3 ± 0.3 | O=c1[nH]cc(F)c(=O)[nH]1 [Compound 5-FU, 5-fluorouracil, reference compound] | – | – | – | –
19 ± 3 | 237 to 244 | 31 ± 5 | 23 ± 10 | Cc1cc(=O)oc2cc(-n3cc(CSc4nc5ccccc5[nH]4)nn3)ccc12 [Compound 4b, 7-{4-{[(1H-Benzo[d]imidazol-2-yl)thio]methyl}-1H-1,2,3-triazol-1-yl}-4-methyl-2H-chromen-2-one] | 69 ± 8 | 74 ± 37 | 25 | –
0.6 ± 0.1 | 269 to 273 | 3 ± 2 | ≥ 100 | Cc1cc(=O)oc2cc(-n3cc(-c4ccc(N)cc4)nn3)ccc12 [Compound 2b, 7-[4-(4-Aminophenyl)-1H-1,2,3-triazol-1-yl]-4-methyl-2H-chromene-2-one] | > 100 | > 100 | > 100 | –
